Results on one molecule are retold here after publication PMC11820896, “New Compounds with Enhanced Biological Activity Through the Strategic Introduction of Silylated Groups into Hydroxystearic Acids” (Molecules, 2025).

Each structure is given as a SMILES string.

The subject of the assay is Caco-2. Kind of assay: MTT assay, Caco-2 cells. Format: cell-based, human. As to conditions: Homo sapiens, MTT after 24 h of treatment, means of four experiments. Here is the method: The human colorectal adenocarcinoma (Caco-2), human colorectal adenocarcinoma (HT29), normal human intestinal (I407), human cervical cancer (HeLa), human breast cancer (MCF7), human bone osteosarcoma (U2OS), and human acute T-cell leukemia (Jurkat J6) cell lines were purchased from American Type Culture Collection (ATCC, Manassas, VA, USA). Cells were cultured in RPMI 1640 medium (Labtek Eurobio, Milan, Italy), supplemented with 10% FCS (Euroclone, Milano, Italy) and 2 mM L-glutamine (Sigma-Aldrich, Milano, Italy), at 37 °C and in a 5% CO2 atmosphere. The compounds were dissolved in DMSO in a 30–40 mM stock solution. In cell treatments, the final DMSO concentration never exceeded 0.1%.
Cells were seeded in a 96-well culture plastic plate (Sarsted, Milan, Italy), at 5 × 10^4 cells/well and, after 24 h, were exposed to increasing concentrations of the different compounds (from 1 nM to 500 nM) dissolved in RPMI 1640 medium. An MTT assay was performed according to Micheletti et al..
The absorbance at 570 nm was measured using a multi-well plate reader (Tecan, Männedorf, Switzerland), and data were analyzed by Prism GraphPad 8 software and expressed as IC50 nM.
A general note: Tetrazolium assays rely on reduction of a dye to a coloured formazan, in cell work by metabolically active cells.

As for `CCCCCCCCC[C@H](CCCCCCCC(=O)O)O[Si](C)(C)C(C)(C)C` [Compound 4, (R)-9-((tert-butyldimethylsilyl)oxy)octadecanoic acid], the half-inhibitory concentration (IC50) is 23.39 ± 0.12 nM.

Usually IC50 stands for the concentration that inhibits the measured activity by half. Low values mean higher potency, high ones lower potency.
